Patent US6172262A, “Amphiphilic agents for membrane protein solubilization” (priority 1999, dated 2001)
Converted amounts (≈) assume the structure as drawn. “And” between values parts separate entries of the source, which are not always exact repeats. Equal values may be shown once. “Also recorded” adds a separate entry of the source.

How the values were obtained:
Bacteriorhodopsin (BR) = molecular target: T1, Bacteriorhodopsin (BR) (Halobacterium salinarum, UniProt P02945); experiment: Solubilization of bacteriorhodopsin (BR) from purple membrane (PM)
T1 construct: We used BR solubilization from the PM to evaluate tripod detergents; endogenous in cells
T1 sequence (P02945 14-261 limits assumed): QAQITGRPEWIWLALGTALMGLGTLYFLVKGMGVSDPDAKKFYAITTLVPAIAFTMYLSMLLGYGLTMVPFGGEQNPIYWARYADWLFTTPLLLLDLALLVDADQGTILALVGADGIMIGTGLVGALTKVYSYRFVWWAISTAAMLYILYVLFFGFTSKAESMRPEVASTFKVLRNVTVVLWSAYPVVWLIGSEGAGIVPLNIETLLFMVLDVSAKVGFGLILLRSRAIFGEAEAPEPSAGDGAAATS
Method: We used BR solubilization from the PM to evaluate tripod detergents synthesized using the modular synthetic approach described above. The retinal chromophore of BR allowed us to quantify solubilized material by UV. Solubilized BR is defined as the intact protein left in the supernatant after a sample is centrifuged for 30 minutes at 300,000 g. The percent BR solubilized is determined by dividing the absorbance of the supernatant by the absorbance of the solution before centrifugation.
Solubilization experiments were conducted by making a series of solutions with constant concentration of PM and varying the concentration of detergent. […] The absorbance at the λmax (between 540 nm and 570 nm) was then measured, and immediately afterward the samples were centrifuged for 30 minutes at 300,000 g. The supernatant was carefully removed so as not to disturb pelleted material. Absorbance measurements were made again, and the ratio of the supernatant absorbance to the absorbance before centrifugation provided the percent solubilization.

Aqueous solubility = type: physicochemical; conditions: for solubility on adding small amounts of ethanol or ethyl acetate: aqueous suspensions plus ethanol or ethyl acetate
[1] = CMC by uptake of fluorescent dye 1,6-diphenylhexatriene, fluorescence spectroscopy; type: physicochemical; conditions: for CMC of N-oxide relative to corresponding hydrochloride salt: 4.65 vs 4.78, 4.66 vs 4.79; for CMC (Critical Micelle Concentration): uptake of 1,6-diphenylhexatriene, 25 mM sodium phosphate pH 6.9, Table 1 and text; for CMC: Table 2, dye uptake versus concentration monitored by fluorescence spectroscopy
Method: The CMCs of detergents 4.65-4.72 were determined by monitoring the uptake of a fluorescent dye (1,6-diphenylhexatriene) with increasing detergent concentration (Table 1, CMC's determined by dye uptake versus concentration monitored by fluorescence spectroscopy). The CMCs of N-oxide isomers 4.65, 4.67, and 4.68 are very similar: 3 mM, 3 mM, and […], respectively. […] The CMCs for the N-oxides 4.65 and 4.66 are twice the CMCs of the corresponding hydrochloride salts (4.78 and 4.79). The hydrochloride salts were formed from the amine precursors to the N-oxides. Most cationic detergents have CMCs that are much higher than non-ionic or zwitterionic analogs. For example, dodecylammonium bromide has a CMC of 15 mM which is >7 times larger than the CMC of the N-oxide analog (LDAO, CMC=2 mM).
The CMCs of 4.100 and 4.104 were determined by the uptake of the fluorescent dye 1,6-diphenylhexatriene. The CMCs are 0.125 mM and 0.700 mM respectively. These values are substantially lower than the CMC of 4.65, which was determined to be 3 mM.
The CMC of a detergent can be determined experimentally by measuring the solubilization of a water-insoluble dye or fluorophore while varying the concentration of detergent. CMC may also be determined by measuring the diminution of the surface tension of an aqueous solution as a function of detergent concentration. (CMC's determined by either method correlate with each other.) The CMC is determined by extrapolating the plot of solubilization vs. concentration (or surface tension vs. concentration) in the two linear regions above and below the CMC. Where the two lines intersect is the CMC. In this Example, CMC's were determined by the method of Nugebauer, J. M. (1990), Methods in Enzymology, 182:239-253:
Tripod solutions in aqueous solutions containing 25 mM sodium phosphate pH 6.9 were prepared and transferred to screw-capped vials, and […] of a 1,6-diphenylhexatriene solution (DPH, 3.125 mM DPH in THF) was added. The solutions were vortexed at room temperature for 30 seconds. The solutions were placed into a 3 mm×3mm quartz cell and the fluorescence spectrum was obtained (excitation 358 nm, emission 430 nm, excitation slit width=1 mm, emission slit width=20 nm, PMT voltage=700). The fluorescence intensity of each sample was plotted against amphiphile concentration. […] The data points immediately surrounding the CMC were not considered due to non-linear behavior. See Tables 1 and 2, above, for the results.

BR = experiment: Loss of exciton coupling of BR by CD spectra (rate of solubilization); set-up: species or system Halobacterium; conditions: room temperature
Method: Tripod detergents 4.65 and 4.66 were tested in this fashion and shown to solubilize BR from the PM quite rapidly. To measure whether the solublized BR was present in a monomeric state, CD spectra of the supernatants were taken. When suspended within the native PM, BR yields a distinct sigmoidal CD spectrum due to exciton coupling between adjacent retinal chromophores. It has been shown that the strength of the exciton coupling is directly proportional to the concentration of retinal chromophore in the PM. Because the exciton coupling requires retinals to be held in a fixed geometry (as when suspended in the PM), the solubilization of BR can be measured in terms of the loss of exciton coupling. […] Exciton coupling was completely gone after less than 10 minutes for samples solubilized by 4.65 and 4.66, a time period which is faster than the time required to obtain a CD spectrum.

| SMILES | CMC (Critical Micelle Concentration) [1] | CMC [1] | also measured |
| --- | --- | --- | --- |
| CCCCC(CCCC)(CCOC1O[C@H](CO)[C@@H](O[C@H]2O[C@H](CO)[C@@H](O)[C@H](O)[C@H]2O)[C@H](O)[C@H]1O)c1ccccc1 (stereo partly shown) [A.2.5] |  |  | BR solubilized from the purple membrane (Bacteriorhodopsin (BR)): approximately 50%; solubility in water (in words) (Aqueous solubility; water): sparingly soluble in water |
| CCCCC(CCCC)(CC(=O)N(CC[N+](C)(C)[O-])CC[N+](C)(C)[O-])c1ccccc1 [Detergent 4.37] |  |  | BR solubilization (Bacteriorhodopsin (BR); after mixing for approximately 20 hrs): greater than 90%; BR solubilization (Bacteriorhodopsin (BR); first batch (about twice as much impurity 4.63)): > 90%; BR solubilization (Bacteriorhodopsin (BR); second batch): < 50% and 50% |
| CCCCCCC(CCCC)(CCCC)CC(=O)N(CC[N+](C)(C)[O-])CC[N+](C)(C)[O-] [Detergent 4.39] |  |  | BR solubilization (Bacteriorhodopsin (BR); after 11 days): approximately 30% |
| CCCCCCC(CC(=O)N(CC[N+](C)(C)[O-])CC[N+](C)(C)[O-])(c1ccccc1)c1ccccc1 [Detergent 4.55] |  |  | BR solubilization (in words) (Bacteriorhodopsin (BR)): readily solubilize BR |
| CCCCC(CC(=O)N(CC[N+](C)(C)[O-])CC[N+](C)(C)[O-])(C1CCCCC1)C1CCCCC1 [Detergent 4.56] |  |  | BR solubilization (in words) (Bacteriorhodopsin (BR)): readily solubilize BR |
| CC(C)(C)c1ccc(C(CC(=O)N(CC[N+](C)(C)[O-])CC[N+](C)(C)[O-])(c2ccc(C(C)(C)C)cc2)c2ccc(C(C)(C)C)cc2)cc1 [Detergent 4.59] |  |  | solubility on adding small amounts of ethanol or ethyl acetate (Aqueous solubility): greatly increased; solubility in water (in words) (Aqueous solubility; water): insoluble in water |
| C[N+](C)([O-])CCN(CC[N+](C)(C)[O-])C(=O)CC(c1ccc(-c2ccccc2)cc1)(c1ccc(-c2ccccc2)cc1)c1ccc(-c2ccccc2)cc1 [Detergent 4.62] |  |  | solubility on adding small amounts of ethanol or ethyl acetate (Aqueous solubility): greatly increased; solubility in water (in words) (Aqueous solubility; water): insoluble in water |
| CCCCC(CCCC)(CC(=O)N(CC)CC[N+](C)(C)[O-])c1ccccc1 [Detergent 4.65] | 3 mM |  | CMC of N-oxide relative to corresponding hydrochloride salt [1]: twice; rate of BR solubilization (in words) (BR): quite rapidly; also recorded: too rapid to monitor the loss of exciton coupling; time to complete loss of exciton coupling (BR): less than 10 minutes; BR solubilization (in words) (Bacteriorhodopsin (BR)): can solubilize BR; BR solubilization (Bacteriorhodopsin (BR); >99% pure by HPLC): greater than 90% |
| CCCCC(CCCC)(CC(=O)NCCC[N+](C)(C)[O-])c1ccccc1 [Detergent 4.66] | 4.5 mM |  | CMC of N-oxide relative to corresponding hydrochloride salt [1]: twice; rate of BR solubilization (in words) (BR): quite rapidly; also recorded: too rapid to monitor the loss of exciton coupling; time to complete loss of exciton coupling (BR): less than 10 minutes; BR solubilization (in words) (Bacteriorhodopsin (BR)): readily solubilize BR; also recorded: can solubilize BR |
| CCCCC(CCCC)(CC(=O)N(C)CCC[N+](C)(C)[O-])c1ccccc1 [Detergent 4.67] | 3 mM |  |  |
| CCCCC(CCCC)(CC(=O)NC(C)(C)C[N+](C)(C)[O-])c1ccccc1 [Detergent 4.68] | 1.2 mM |  |  |
| CCCCC(CCCC)(CC[N+](C)(C)[O-])c1ccccc1 [Detergent 4.69] | 2.5 mM |  |  |
| CCCCC(CCCC)(CC(=O)NCC(C)(C)C[N+](C)(C)[O-])c1ccccc1 [Detergent 4.70] | 7.5 mM |  | CMC of 4.70 relative to that of 4.68 [1]: six times larger |
| CCCCC(CCCC)(CC(=O)N(CCC[N+](C)(C)[O-])CCC[N+](C)(C)[O-])c1ccccc1 [Detergent 4.71] | 10 mM |  |  |
| CCCCC(CCCC)(CC(=O)N(CC)CCN(C)C)c1ccccc1 [Detergent 4.78] | 1.3 mM |  |  |
| CCCCC(CCCC)(CC(=O)NCCCN(C)C)c1ccccc1 [Detergent 4.79] | 2.8 mM |  |  |
| CCCCC(CCCC)(CC(=O)N(C)CCCN(C)C)c1ccccc1 [Detergent 4.80] | 5 mM |  |  |
| CCCCC(CCCC)(CC(=O)NC(C)(C)CN(C)C)c1ccccc1 [Detergent 4.81] | Does not take up dye up to solubility limit |  | solubility (Aqueous solubility; water, Table 1, no dye uptake up to this limit, read-out: solubility limit): ~12.5 mM (≈ 4510 µg/mL) |

| SMILES | CMC (Critical Micelle Concentration) [1] | CMC [1] | also measured |
| --- | --- | --- | --- |
| CCCCC(CCCC)(CCN(C)C)c1ccccc1 [Detergent 4.82] | 5 mM |  |  |
| CCCCC(CCCC)(CC(=O)NCC(C)(C)CN(C)C)c1ccccc1 [Detergent 4.83] | 14.7 mM |  |  |
| CCCCC(CCCC)(CC(=O)N(CCCN(C)C)CCCN(C)C)c1ccccc1 [Detergent 4.84] | 24 mM | 24 mM |  |
| CN(C)CCCN(CCCN(C)C)C(=O)CC1(c2ccccc2)CCCCCCC1 [Detergent 4.85] |  | 80 mM |  |
| CCCCC(CC(=O)N(CCCN(C)C)CCCN(C)C)(c1ccccc1)c1ccccc1 [Detergent 4.86] |  | 21 mM |  |
| CCCCCCC(CC(=O)N(CCCN(C)C)CCCN(C)C)(c1ccccc1)c1ccccc1 [Detergent 4.87] |  | 4 mM |  |
| CN(C)CCCN(CCCN(C)C)C(=O)CC(c1ccccc1)(c1ccccc1)c1ccccc1 [Detergent 4.88] |  | 30 mM |  |
| CN(C)CCCN(CCCN(C)C)C(=O)CC(c1ccccc1)(c1ccccc1)c1ccc(C(C)(C)C)cc1 [Detergent 4.89] |  | 3 mM |  |
| CN(C)CCCN(CCCN(C)C)C(=O)CC(c1ccc(-c2ccccc2)cc1)(c1ccc(-c2ccccc2)cc1)c1ccc(-c2ccccc2)cc1 [Detergent 4.90] |  | insol. |  |
| CN(C)CCCN(CCCN(C)C)C(=O)CC(c1ccc(C(C)(C)C)cc1)(c1ccc(C(C)(C)C)cc1)c1ccc(C(C)(C)C)cc1 [Detergent 4.91] |  | insol. |  |
| CCCCCCC(CCCC)(CCCC)CC(=O)N(CCCN(C)C)CCCN(C)C [Detergent 4.92] |  | 1 mM |  |
| CCCCC(CCCC)(CCCC)CC(=O)N(CCCN(C)C)CCCN(C)C [Detergent 4.93] |  | 6 mM |  |
| CCCCC(CC(=O)N(CCCN(C)C)CCCN(C)C)(C1CCCCC1)C1CCCCC1 [Detergent 4.94] |  | 3 mM |  |
| CN(C)CCCN(CCCN(C)C)C(=O)CC1(C2CCCCC2)CCCCCCC1 [Detergent 4.95] |  | 24 mM |  |
| CCCCC(CCCC)(CC(=O)N(CCCN(C)C)CCCN(C)C)C1CCCCC1 [Detergent 4.96] |  | 4.6 mM |  |
| CCCCCCCCCCc1ccc(C(=O)N(CC)CC[N+](C)(C)[O-])cc1 [Detergent 4.100] | 0.125 mM |  |  |
| CCCCC(C)(CCCC)c1ccc(C(=O)N(CC)CC[N+](C)(C)[O-])cc1 [Detergent 4.104] | 0.700 mM |  |  |
